Test results from patent US6573219B1, “Substituted heterocyclyl-2H-chromenes” (Bayer Aktiengesellschaft, priority 1999, dated 2003).

Key:
weeds [1] = assay: Pre-emergence test (Example A), weeds; type: in vivo; conditions: soil sprayed 24 hours after sowing, rated after three weeks
Source text: (§1) Solvent: 5 parts by weight of acetone
(§2) Emulsifier: 1 part by weight of alkylaryl polyglycol ether
Seeds of the test plants are sown in normal soil.
(§3) After three weeks, the degree of damage to the plants is rated in % damage in comparison to the development of the untreated control.

weeds [2] = assay: Post-emergence test (Example B), weeds; type: in vivo; conditions: test plants of 5-15 cm sprayed, rated after three weeks
Source text: as §1, §2, §3

[3] = LogP determination by HPLC (EEC directive 79/831 Annex V.A8, reversed-phase C18); type: physicochemical; conditions: reversed-phase C18 HPLC column, mobile phase range not labelled
Experimental: The LogP values given in Table 1 were determined in accordance with EEC directive 79/831 Annex V.A8 by HPLC (High Performance Liquid Chromatography) using a reversed-phase column (C 18). Temperature: 43° C.
(a) Mobile phases for the determination in the acidic range: 0.1% aqueous phosphoric acid, acetonitrile; linear gradient from 10% acetonitrile to 90% acetonitrile—the corresponding data in Table 1 are labelled^a).
(b) Mobile phases for the determination in the neutral range, 0.01 molar aqueous phosphate buffer solution, acetonitrile; linear gradient from 10% acetonitrile to 90% acetonitrile—the corresponding data in Table 1 are labelled b
Calibration was carried out using unbranched alkan-2-ones (with from 3 to 16 carbon atoms) whose logP values are known (determination of the logP values by the retention times using linear interpolation between two successive alkanones).

| SMILES | activity against weeds (degree of damage) (weeds [1]) | activity against weeds (degree of damage) (weeds [2]) | melting point [°C] | chromatographic logP [3] |
| --- | --- | --- | --- | --- |
| CC1C=Cc2c(c(C#N)cc(F)c2-n2c(=O)cc(C(F)(F)F)n(N)c2=O)O1 (stereo not shown) [Example 1] | very strong activity |  |  |  |
| CC1C=Cc2c(c(C#N)cc(F)c2-n2nc(C(F)(F)F)n(C)c2=S)O1 (stereo not shown) [Example 2] |  | very strong activity | 144 | 3.37 |
| C#CC(C)Oc1cc(N2C(=O)c3ccccc3C2=O)c(F)cc1C#N (stereo not shown) [Example (II-2), N-[2-fluoro-4-cyano-5-(but-1-in-3-yl)-oxyphenyl]-phthalimide] |  |  | 170 | 2.92 |
| N#Cc1cc(F)c(N2C(=O)c3ccccc3C2=O)cc1O [N-(2-fluoro-4-cyano-5-hydroxy-phenyl)-phthalimide] |  |  | 247 | 2.04 |
| COc1cc(N2C(=O)c3ccccc3C2=O)c(F)cc1C#N [N-(2-fluoro-4-cyano-5-methoxy-phenyl)-phthalimide] |  |  | 245 | 2.51 |
